Measured values taken from patent US12577526B2, “Massively parallel on-chip construction of synthetic microbial communities” (MASSACHUSETTS INSTITUTE OF TECHNOLOGY, priority 2019, dated 2026).
Entries after “also recorded” stand apart in the source; their conditions may differ.

test system: Herbaspirillum frisingense (Hf-GFP); assay: Hf-GFP facilitation screen on kChip (Hf-GFP yield in co-culture with soil isolate compositions, single carbon sources); assay type: cell-based; conditions: single carbon source 0.5% w/v, by 72 hours
Method: Microbial cultures were prepared as described in the “Microbial culture input preparation” section above. The culture medium for H. frisingense revival from a glycerol stock also included the selection antibiotic kanamycin (30 μg/mL). Six carbon sources (galactose, glucose, fructose, raffinose, lactose, sucrose) were prepared as described in the “Carbon source input preparation” section above to a concentration of 2% w/v, which were added 1:1 with MM+0.05% w/v BSA to produce 1×MM+1% w/v carbon source (six unique MM each with one carbon source). A plate of 16 color codes were also prepared in advance at 50 μM total concentration (“kChip input preprocessing” section above).
At the onset of the screen, all cultures were washed three times and resuspended in MM+0.05% w/v BSA (no carbon source) and normalized to an initial OD600=0.08. A “droplet plate” (96-well plate) was prepared whereby each of 16 wells, corresponding to the 16 input conditions of the screen, received the following four elements: (1) 50 μL MM+1% w/v carbon source; (2) 25 μL unique soil isolate at OD600=0.08 (or a no-isolate control or a negative control); (3) 25 μL Hf-GFP at OD600=0.08; and (4) 2 μL 50 μM color code. The two controls, a negative control and a no-isolate control, were in principle the same (just different color codes), with the negative control used to measure Hf-GFP monocultures and the no-isolate used to calculate isolate-mediated differences. The carbon source and color code were mixed in advance, though the cultures were added just before making droplets to load on a kChip.
After emulsification, each 1-nL droplet contained the following: (1) 0.5% w/v carbon source; (2) soil isolate at OD600=0.02 (˜20 cells) (or no-isolate control or negative control); (3) Hf-GFP at OD600=0.02 (˜20 cells); and (4) a set of color code (total concentration of all three fluorescent dyes at 1 μM). Droplets were prepared for each carbon source at a time and loaded onto a k={1:7;19} Chip, i.e. first all sucrose-containing droplets were prepared and loaded onto the first kChip in the screen, then all lactose-containing droplets were prepared and loaded onto the second kChip, and so forth. Because there were only 16 inputs in total, there were no instances where all inputs were unique in k=19 microwells. The instant analysis was focused upon the k=1-7 microwells, and specifically on instances where all droplets within a given microwell were unique. Throughput tradeoffs associated with this number of inputs and k values are discussed below.
After loading droplets, the kChip was imaged to read the color-code of each droplet (“pre-merge” scan) and droplet sets were merged within their corresponding microwells (“Droplet making and kChip loading” section above). The post-merge communities contained the following: (1) 0.5% w/v carbon source; (2) k=1, 2, 3, 4, 5, 6, 7, or 19 soil isolates collectively at OD600=0.02 (or no-isolate control or negative control); (3) Hf-GFP at OD600=0.02; and (4) 1 μM mixed color codes (no longer serving a purpose). […]

Row | Compound | Hf-GFP monoculture growth/yield on the carbon source
1 | O=C(CO)[C@@H](O)[C@H](O)[C@H](O)CO [fructose] | low
2 | O=C[C@H](O)[C@@H](O)[C@@H](O)[C@H](O)CO [galactose] | high yield
3 | OC[C@H]1O[C@@H](O[C@H]2[C@H](O)[C@@H](O)C(O)O[C@@H]2CO)[C@H](O)[C@@H](O)[C@H]1O (stereo partly drawn) [lactose] | low
4 | OC[C@H]1O[C@H](OC[C@H]2O[C@H](O[C@]3(CO)O[C@H](CO)[C@@H](O)[C@@H]3O)[C@H](O)[C@@H](O)[C@@H]2O)[C@H](O)[C@@H](O)[C@H]1O [raffinose] | low
5 | OC[C@H]1O[C@@](CO)(O[C@H]2O[C@H](CO)[C@@H](O)[C@H](O)[C@H]2O)[C@@H](O)[C@@H]1O [sucrose] | indistinguishable from background; also recorded: undetectably low

test system: panel of seven fluorescent strains; assay: not given; conditions: cultures unable to grow on a given carbon source, BSA added

Row | Compound | serving as an alternative carbon source (false positive growth)
6 | bovine serum albumin [BSA] | caused no false positives
